Test results: EP0186365A2, “Preparation of alcohols” (UNITED KINGDOM ATOMIC ENERGY AUTHORITY, priority 1984, dated 1986)

Key:
YADH [1] = target: T1, YADH (Saccharomyces cerevisiae, UniProt P00330); assay: Example 3 (ii): inhibition of soluble YADH after pre-incubation with aldehyde; type: biochemical, yeast; details: soluble enzyme; 2 mM aldehyde, 60 min, 22 °C, then dialysis; assayed with trans-cinnamaldehyde (5 mM)
T1 sequence (P00330 1-348): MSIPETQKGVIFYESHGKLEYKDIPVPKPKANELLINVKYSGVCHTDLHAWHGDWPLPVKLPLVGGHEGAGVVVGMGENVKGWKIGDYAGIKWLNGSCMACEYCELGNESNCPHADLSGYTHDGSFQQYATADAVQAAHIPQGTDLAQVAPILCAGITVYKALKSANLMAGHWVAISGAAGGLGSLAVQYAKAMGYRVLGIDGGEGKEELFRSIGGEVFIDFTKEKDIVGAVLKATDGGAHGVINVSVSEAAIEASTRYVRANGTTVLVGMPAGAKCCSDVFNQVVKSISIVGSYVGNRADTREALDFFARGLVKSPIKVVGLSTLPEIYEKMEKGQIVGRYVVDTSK
Experimental: By way of comparison, stock enzyme solution (800 µ1; 0.2 mg protein/ml) was incubated with cinnamaldehyde (200 µ1; 10 mM). This also gave a final aldehyde concentration of 2 mM and a protein concentration of 0.16 mg/ml. The reaction mixture was incubated at 22 (+2)^OC for 60 min with continuous gentle agitation. After incubation, the soluble enzyme was dialysed against coupling buffer (30 ml; 0.lM) at 4°C for 21/2 hours with one change of buffer. Enzyme activity was assayed immediately after dialysis using trans-cinnamaldehyde (5 mM) as assay substrate with a protein concentration of 0.2 mg/ml.

YADH [2] = target: T1, YADH; assay: Inhibition/inactivation of YADH in solution by incubation with aldehyde; type: biochemical, yeast
Description: The enzymatic reduction of aldehydes may, however, present a serious problem due to the aldehyde, whilst being a substrate for the enzyme, being a potent irreversible inhibitor.

[3] = target: T2, Horse liver alcohol dehydrogenase or HLADH (Equus caballus, UniProt P00327); assay: Example 4: activity of immobilised HLADH in the reduction of aldehydes (NADH absorbance decrease at 380 nm); type: biochemical; details: aldehyde as substrate (2mM), NADH (1mM), pH 7.0, 22 °C, initial rate over 2 minutes
T2 construct: whether it is derived from yeast (i.e. is a YADH) from horse liver (HLADH), or from another source; from tissue; host or cells: horse liver
Experimental: Horse liver alcohol dehydrogenase or HLADH (50 mg; 1 U/mg) was reacted with swelled CNBr-activated Sepharose 4B (Registered Trade Mark) beads (0.8 g).
The activity of the immobilised enzyme in the reduction of aldehydes to alcohols was determined in coupling buffer (0.1 M; pH 7.0) at 22 (+2)°C as the initial rate of decrease in absorbance at 380 nm over a 2 minute time period using NADH (lmM) and aldehyde (2mM).

immobilised HLADH = target: T3, immobilised HLADH (Equus caballus, UniProt P00327); assay: Example 5: inhibition of immobilised HLADH by aldehydes; type: biochemical, horse; details: (b) immobilised HLADH; assay using the aldehyde used in pre-incubation
T3 construct: whether it is derived from yeast (i.e. is a YADH) from horse liver (HLADH), or from another source; from tissue; host or cells: horse liver
Experimental: (§1) In order to test the inhibition of the immobilised enzyme by aldehyde, the beads (50 - 60 µl) were incubated with trans-cinnamaldehyde ([…]; 10 mM) and a coupling buffer (3.95 ml; pH 7.0). This gave a final aldehyde concentration of 2 mM and a protein concentration of 0.16 mg/ml. The reaction mixture was incubated at 22 (+2)°C for 60 min with continuous gentle agitation. The immobilised enzyme was washed three times in coupling buffer (10 ml) at 22 (+2)C and resuspended in eight times of its original volume in coupling buffer. Enzyme activity was assayed immediately after washing using trans-cinnamaldehyde (5 mM) as assay substrate with a protein concentration of 0.2 mg/ml.
Horse liver alcohol dehydrogenase or HLADH (50 mg; 1 U/mg) was reacted with swelled CNBr-activated Sepharose 4B (Registered Trade Mark) beads (0.8 g). Approximately 90% of the enzyme was thus immobilised.
The inhibition of the immobilised enzyme (prepared as in Example 4) by aldehydes was tested and compared with the soluble enzyme as described in Example 3. The results were as follows:
(a) assaying using trans-cinnamaldehyde following pre-incubation using a different aldehyde
(b) assaying using the aldehyde used in pre-incubation

YADH [4] = target: T1, YADH; assay: Example 3 (i): inhibition of immobilised YADH after pre-incubation with aldehyde; type: biochemical, yeast; details: immobilised enzyme; 2 mM aldehyde, 60 min, 22 °C, then washing; assayed with trans-cinnamaldehyde (5 mM)
Experimental: YADH (15 mg; 200U/mg) was reacted with swelled CNBr-activated Sepharose 4B (Registered Trade Mark) beads (0.4 g; ex Pharmacia) and coupling carried out in sodium phosphate buffer (0.1M; pH 7.0) containing KCl (0.5 M) for 18 hours at 4°C. Approximately 90% of the enzyme was thus immobilised.
as §1

[5] = solution of the enzyme incubated with 5 mM aldehyde

T2 sequence (P00327 whole entry): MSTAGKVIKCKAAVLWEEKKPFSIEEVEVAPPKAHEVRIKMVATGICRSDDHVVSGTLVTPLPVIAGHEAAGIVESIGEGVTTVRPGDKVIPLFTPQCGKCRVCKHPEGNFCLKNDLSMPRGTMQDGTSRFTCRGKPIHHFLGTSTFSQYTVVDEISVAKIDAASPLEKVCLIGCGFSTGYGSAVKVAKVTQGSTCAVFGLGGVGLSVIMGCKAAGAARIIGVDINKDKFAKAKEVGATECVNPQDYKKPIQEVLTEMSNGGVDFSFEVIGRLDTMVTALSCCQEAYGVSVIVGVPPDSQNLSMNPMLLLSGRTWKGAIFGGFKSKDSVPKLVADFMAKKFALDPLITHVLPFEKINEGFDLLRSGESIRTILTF
T3 sequence (P00327 whole entry): as above

Structure (SMILES)	activity [3]	also measured
O=CC=Cc1ccccc1 [cinnamaldehyde]		inhibition at 2000 µM (YADH [1]): 90%; time to 50% inhibition (YADH [2]; [5]): 12 min; time to total inhibition (YADH [2]; [5]): about 30 minutes
OCC=Cc1ccccc1 [cinnamyl alcohol]		inhibitory effect (YADH [2]; even at 8 mM): no inhibitory effect
CC(C)=CCCC(C)=CC=O [citral]	0.91 micromoles NADH/min/mg protein	
CC(C)=CCCC(C)CC=O (centres unmarked) [citronellal]	0.75 micromoles NADH/min/mg protein	inhibition at 2000 µM (immobilised HLADH): 11%
COc1ccc(C=O)cc1 [p-anisaldehyde]	1.55 micromoles NADH/min/mg protein	
CC(C)c1ccc(C=O)cc1 [p-cuminaldehyde]	0.94 micromoles NADH/min/mg protein	
O=Cc1ccc(O)cc1 [p-hydroxybenzaldehyde]	0.94 micromoles NADH/min/mg protein	
O=Cc1ccc2c(c1)OCO2 [piperonaldehyde]	1.47 micromoles NADH/min/mg protein	
O=Cc1ccccc1O [salicylaldehyde]	0.57 micromoles NADH/min/mg protein	
O=C/C=C/c1ccccc1 [trans-cinnamaldehyde]	1.36 micromoles NADH/min/mg protein	inhibition at 2000 µM (YADH [4]): 50%
